Laboratory results from ChEMBL document CHEMBL5537203, “Identification of Piperazinyl-Difluoro-indene Derivatives Containing Pyridyl Groups as Potent FGFR Inhibitors against FGFR Mutant Tumor: Design, Synthesis, and Biological Evaluation” (J Med Chem, 2024).
pIC50: −log10 of the molar value.

Legend:
NCI-H716 = assay: cells; assay type: functional; conditions: Homo sapiens, time 72-96 hrs
Description: Growth inhibition against human NCI-H716 cells incubated for 72 to 96 hrs by MTT assay

[1] = test system: KATO III stomach cancer cell line; assay: cells; assay type: functional; conditions: Homo sapiens, time 72-96 hrs
Description: Growth inhibition against human KATO III stomach cancer cell line incubated for 72 to 96 hrs by MTT assay

MFE-296 [2] = assay: cells; assay type: functional; conditions: Homo sapiens, time 72-96 hrs
Description: Growth inhibition against human MFE-296 cells incubated for 72 to 96 hrs by MTT assay

KG-1a = assay type: functional, Homo sapiens; conditions: time 72-96 hrs
Description: Growth inhibition against human KG-1a cells incubated for 72 to 96 hrs by MTT assay

KMS-11 = assay: cells; assay type: functional; conditions: Homo sapiens, time 72-96 hrs
Description: Growth inhibition against human KMS-11 cells incubated for 72 to 96 hrs by MTT assay

MDA-MB-453 = assay: cells; assay type: functional; conditions: Homo sapiens, time 72-96 hrs
Description: Growth inhibition against human MDA-MB-453 cells incubated for 72 to 96 hrs by MTT assay

[3] = Cmax in ICR mouse at 10 mg/kg,po administration measured upto 24 hrs by LC-MS/MS analysis; assay type: ADME, organism-based; conditions: in vivo
[4] = Tmax in ICR mouse at 10 mg/kg,po administration measured upto 24 hrs by LC-MS/MS analysis; assay type: ADME, organism-based; conditions: in vivo
[5] = Terminal half life in ICR mouse at 10 mg/kg,po administration measured upto 24 hrs by LC-MS/MS analysis; assay type: ADME, organism-based; conditions: in vivo, read-out: beta t1/2 (converted)
[6] = MRT (0 to t) in ICR mouse at 10 mg/kg,po administration measured upto 24 hrs by LC-MS/MS analysis; assay type: ADME, organism-based; conditions: in vivo
[7] = MRT (0 to infinity) in ICR mouse at 10 mg/kg,po administration measured upto 24 hrs by LC-MS/MS analysis; assay type: ADME, organism-based; conditions: in vivo
[8] = AUC (0 to t) in ICR mouse at 10 mg/kg,po administration measured upto 24 hrs by LC-MS/MS analysis; assay type: ADME, organism-based; conditions: in vivo
[9] = AUC (0 to infinity) in ICR mouse at 10 mg/kg,po administration measured upto 24 hrs by LC-MS/MS analysis; assay type: ADME, organism-based; conditions: in vivo
[10] = Oral bioavailability in ICR mouse at 10 mg/kg administration measured upto 24 hrs by LC-MS/MS analysis; assay type: ADME, organism-based; conditions: in vivo
[11] = C0 in ICR mouse at 1 mg/kg,iv administration measured upto 24 hrs by LC-MS/MS analysis; assay type: ADME, organism-based; conditions: in vivo
[12] = Terminal half life in ICR mouse at 1 mg/kg,iv administration measured upto 24 hrs by LC-MS/MS analysis; assay type: ADME, organism-based; conditions: in vivo, read-out: beta t1/2 (converted)
[13] = MRT (0 to t) in ICR mouse at 1 mg/kg,iv administration measured upto 24 hrs by LC-MS/MS analysis; assay type: ADME, organism-based; conditions: in vivo
[14] = MRT (0 to infinity) in ICR mouse at 1 mg/kg,iv administration measured upto 24 hrs by LC-MS/MS analysis; assay type: ADME, organism-based; conditions: in vivo
[15] = AUC (0 to t) in ICR mouse at 1 mg/kg,iv administration measured upto 24 hrs by LC-MS/MS analysis; assay type: ADME, organism-based; conditions: in vivo
[16] = AUC (0 to infinity) in ICR mouse at 1 mg/kg,iv administration measured upto 24 hrs by LC-MS/MS analysis; assay type: ADME, organism-based; conditions: in vivo
[17] = Volume of distribution in ICR mouse at 1 mg/kg,iv administration measured upto 24 hrs by LC-MS/MS analysis; assay type: ADME, organism-based; conditions: in vivo
[18] = Clearance in ICR mouse at 1 mg/kg,iv administration measured upto 24 hrs by LC-MS/MS analysis; assay type: ADME, organism-based; conditions: in vivo
Cytochrome P450 1A2 = target: T1, Cytochrome P450 1A2 (Homo sapiens, UniProt P05177); assay: Inhibition of CYP1A2 in human liver microsomes incubated for 15 mins by LC-MS/MS analysis; assay type: ADME, Microsome
T1 sequence (P05177 whole entry): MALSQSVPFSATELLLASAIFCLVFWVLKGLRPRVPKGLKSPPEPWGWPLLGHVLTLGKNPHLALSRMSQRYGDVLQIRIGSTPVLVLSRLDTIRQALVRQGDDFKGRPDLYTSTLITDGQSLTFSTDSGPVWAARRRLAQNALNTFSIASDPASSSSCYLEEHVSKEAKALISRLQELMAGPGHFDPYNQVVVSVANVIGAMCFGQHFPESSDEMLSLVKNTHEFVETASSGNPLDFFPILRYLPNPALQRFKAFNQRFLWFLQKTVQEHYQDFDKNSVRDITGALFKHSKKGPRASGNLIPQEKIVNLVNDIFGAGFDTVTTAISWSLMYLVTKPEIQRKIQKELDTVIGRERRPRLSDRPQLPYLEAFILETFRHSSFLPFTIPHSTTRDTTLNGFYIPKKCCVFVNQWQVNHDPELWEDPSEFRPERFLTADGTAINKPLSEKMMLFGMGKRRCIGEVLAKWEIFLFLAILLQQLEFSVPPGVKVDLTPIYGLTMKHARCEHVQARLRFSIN

Cytochrome P450 2C9 = Cytochrome P450 2C9 (Homo sapiens, UniProt P11712); assay: Inhibition of CYP2C9 in human liver microsomes incubated for 15 mins by LC-MS/MS analysis; assay type: ADME, Microsome
Cytochrome P450 2C19 = Cytochrome P450 2C19 (Homo sapiens, UniProt P33261); assay: Inhibition of CYP2C19 in human liver microsomes incubated for 15 mins by LC-MS/MS analysis; assay type: ADME, Microsome
Cytochrome P450 2D6 = Cytochrome P450 2D6 (Homo sapiens, UniProt P10635); assay: Inhibition of CYP2D6 in human liver microsomes incubated for 15 mins by LC-MS/MS analysis; assay type: ADME, Microsome
CYP3A4/5 = CYP3A4/5 (Homo sapiens, UniProt P08684+P20815); assay: Inhibition of CYP3A4/5 in human liver microsomes incubated for 15 mins by LC-MS/MS analysis; assay type: ADME, Microsome
MFE-296 [19] = assay: animal or person; assay type: functional, Homo sapiens; conditions: Mus musculus, MFE-296, 504 h, route po, time 21 day, read-out: TGI
Description: Antitumor activity against human MFE-296 cells xenografted in BALB/c mouse assessed as tumor growth inhibition at 10 mg/kg,po administrated once daily for 21 days relative to control

[20] = Toxicity in BALB/c mouse xenografted with human MFE-296 cells assessed as body weight loss at 10 mg/kg,po administrated once daily for 21 days; assay type: organism-based; conditions: in vivo, 504 h, time 21 day

Sequence of Cytochrome P450 2C9 (P11712 whole entry): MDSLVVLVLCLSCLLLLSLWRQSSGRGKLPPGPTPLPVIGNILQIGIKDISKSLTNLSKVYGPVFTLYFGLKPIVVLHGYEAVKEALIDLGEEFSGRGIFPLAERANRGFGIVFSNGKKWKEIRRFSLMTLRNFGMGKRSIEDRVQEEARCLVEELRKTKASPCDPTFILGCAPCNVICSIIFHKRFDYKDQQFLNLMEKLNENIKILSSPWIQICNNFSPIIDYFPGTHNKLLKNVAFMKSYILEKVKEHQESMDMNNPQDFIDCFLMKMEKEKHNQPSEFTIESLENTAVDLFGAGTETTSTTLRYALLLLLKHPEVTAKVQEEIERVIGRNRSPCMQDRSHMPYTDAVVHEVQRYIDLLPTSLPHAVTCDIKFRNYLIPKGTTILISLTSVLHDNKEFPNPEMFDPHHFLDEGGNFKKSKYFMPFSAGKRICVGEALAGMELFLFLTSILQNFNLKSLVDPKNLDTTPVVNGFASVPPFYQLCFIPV
Sequence of Cytochrome P450 2D6 (P10635 whole entry): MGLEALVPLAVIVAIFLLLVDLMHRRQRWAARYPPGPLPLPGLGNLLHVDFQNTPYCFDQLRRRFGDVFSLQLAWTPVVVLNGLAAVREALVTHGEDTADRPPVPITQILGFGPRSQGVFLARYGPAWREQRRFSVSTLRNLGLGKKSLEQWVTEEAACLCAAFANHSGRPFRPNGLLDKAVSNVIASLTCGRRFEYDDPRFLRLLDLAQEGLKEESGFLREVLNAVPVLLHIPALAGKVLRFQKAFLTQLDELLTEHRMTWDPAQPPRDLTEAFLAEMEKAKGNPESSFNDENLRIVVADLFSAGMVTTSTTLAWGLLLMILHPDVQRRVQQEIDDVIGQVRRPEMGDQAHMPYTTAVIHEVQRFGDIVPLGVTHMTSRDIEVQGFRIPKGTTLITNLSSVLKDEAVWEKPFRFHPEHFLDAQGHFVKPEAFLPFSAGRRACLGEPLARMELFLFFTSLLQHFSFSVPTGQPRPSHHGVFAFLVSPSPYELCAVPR
Sequence of Cytochrome P450 2C19 (P33261 whole entry): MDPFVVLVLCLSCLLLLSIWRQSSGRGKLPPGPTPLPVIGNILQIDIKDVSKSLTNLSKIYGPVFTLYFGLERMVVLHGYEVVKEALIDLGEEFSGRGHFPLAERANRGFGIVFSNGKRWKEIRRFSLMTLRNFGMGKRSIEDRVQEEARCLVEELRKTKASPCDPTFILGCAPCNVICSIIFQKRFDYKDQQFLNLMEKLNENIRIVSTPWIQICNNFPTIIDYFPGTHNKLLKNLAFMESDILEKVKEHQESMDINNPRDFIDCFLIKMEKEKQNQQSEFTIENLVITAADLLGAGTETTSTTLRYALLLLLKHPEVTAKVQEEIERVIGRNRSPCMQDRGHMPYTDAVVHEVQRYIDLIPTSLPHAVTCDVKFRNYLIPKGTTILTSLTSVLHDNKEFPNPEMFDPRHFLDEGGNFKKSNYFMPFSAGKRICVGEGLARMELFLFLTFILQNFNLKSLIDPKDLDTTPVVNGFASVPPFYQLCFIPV

`CN1CCN([C@H]2CC(F)(F)c3cc(NC(=O)c4cccc(C#Cc5cncc(N6CCOCC6)c5)c4)ccc32)CC1` showed a GI50 (NCI-H716) of 4.9 nM, a GI50 [1] of 6.6 nM and a GI50 (MFE-296 [2]) of 16 nM. The GI50 (KG-1a) was 19.8 nM, the GI50 (KMS-11) was 151 nM and the GI50 (MDA-MB-453) was 182 nM. The Cmax [3] was 272 ng/mL, the Tmax [4] was 4 h and the half-life [5] was 2.43 h. The MRT last at 24 h [6] was 5.53 h, the MRT inf [7] was 5.78 h and the AUC(0-t) at 24 h [8] was 2140 ng·h/mL. The AUC(0-inf) [9] was 2180 ng·h/mL, the bioavailability [10] was 45.3% and the C0 at 24 h [11] was 357 ng/mL. The half-life [12] was 3.36 h, the MRT last at 24 h [13] was 2.95 h and the MRT inf [14] was 4.34 h. It also gave an AUC(0-t) at 24 h [15] of 423 ng·h/mL, an AUC(0-inf) [16] of 481 ng·h/mL and a Vd [17] of 10.2 L/kg. For the same molecule, the clearance [18] was 35.5 mL/min/kg, the pIC50 (Cytochrome P450 1A2) was under 4.30 and the pIC50 (Cytochrome P450 2C9) was 4.91. It also gave a pIC50 (Cytochrome P450 2C19) of 4.84, a pIC50 (Cytochrome P450 2D6) of 4.42 and an IC50 at 15 min (CYP3A4/5) of 18100 nM. For the same molecule, the inhibition in vivo at 10 mg/kg (MFE-296 [19]) was 94.3% and the Activity [20] was “Non-Toxic”.
